# From the supplement of paper PMC9663587
# Tests used:
# [1] = compound: CCNC(=O)c1noc(-c2cc(C(C)C)c(O)cc2O)c1-c1ccc(CN2CCOCC2)cc1 [Luminespib/NVP-AUY922]
# [2] = compound: CN(C)C/C=C/C(=O)NC1=CC=C(C=C1)C(=O)NC2=CC=CC(=C2)NC3=NC=NC(=C3)C4=CNC5=CC=CC=C54 [THZ-P1-2]
# [3] = compound: CN(C)C/C=C/C(=O)Nc1ccc(O[C@@H]2CCC[C@@H](Nc3ncc(Cl)c(-c4c[nH]c5ccccc45)n3)C2)cc1 [BSJ-01-175]
# [4] = compound: CCCCOc1c(C(=O)c2c(F)cc(C)cc2F)c[nH]c2nncc1-2
# [5] = compound: Cc1cc(Nc2ncc(Cl)c(Nc3ccccc3S(=O)(=O)C(C)C)n2)c(OC(C)C)cc1C1CCNCC1 [Ceritinib/LDK378]
# [6] = compound: CN1CCN(CCOc2cc(OC3CCOCC3)c3c(Nc4c(Cl)ccc5c4OCO5)ncnc3c2)CC1 [Saracatinib/AZD0530]
# [7] = compound: CN1CC[C@H](c2c(O)cc(O)c3c(=O)cc(-c4ccccc4Cl)oc23)[C@H](O)C1 [Flavopiridol]; assay: increase in dead-cell fraction, 72 h; higher = more death;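 also: breast cancer cell lines in 384-well plates, stained with Hoechst plus LIVE/DEAD far red dye and imaged, cells above an LDR intensity threshold counted dead, Hoechst-negative corpses included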
# [8] = compound: CCOc1cc2ncc(C#N)c(Nc3ccc(OCc4ccccn4)c(Cl)c3)c2cc1NC(=O)/C=C/CN(C)C [Neratinib/HKI272]; assay: as above
# [9] = compound: CCN1CCN(Cc2ccc(Nc3ncc(F)c(-c4cc(F)c5nc(C)n(C(C)C)c5c4)n3)nc2)CC1; assay: as above
# [10] = compound: CN(C)C/C=C/C(=O)Nc1ccc(C(=O)Nc2cccc(Nc3ncc(Cl)c(-c4c[nH]c5ccccc45)n3)c2)cc1 [THZ1]; assay: as above
# [11] = compound: CC(=O)c1c(C)c2cnc(Nc3ccc(N4CCNCC4)cn3)nc2n(C2CCCC2)c1=O; assay: as above
# [12] = compound: CN(C)C/C=C/C(=O)Nc1ccc(C(=O)N2CCC[C@@H](Nc3ncc(Cl)c(-c4c[nH]c5ccccc45)n3)C2)cc1 [THZ531]; assay: as above
# [13] = compound: CN(C)C(=O)c1cc2cnc(Nc3ccc(N4CCNCC4)cn3)nc2n1C1CCCC1 [LEE011/Ribociclib]; assay: as above
# [14] = compound: C=CC(=O)Nc1ccc(C(=O)Nc2[nH]nc3c2CN(C(=O)N[C@H](CN(C)C)c2ccccc2)C3(C)C)cc1 [YKL-5-124]; assay: as above
# [15] = compound: CC(=O)c1c(C)c2cnc(Nc3ccc(N4CCN(CCOCCOCCOCCNC(=O)COc5cccc6c5C(=O)N(C5CCC(=O)NC5=O)C6=O)CC4)cn3)nc2n(C2CCCC2)c1=O [BSJ-03-123]; assay: as above
# [16] = compound: CCc1cnn2c(NCc3ccc[n+]([O-])c3)cc(N3CCCC[C@H]3CCO)nc12; assay: as above
# 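For GR50, 72 h in this document: breast cancer and non-malignant breast epithelial cell lines, Deep Dye Drop or Dye Drop imaging, nine half-log doses, GR normalized to time-zero plates and DMSO-only controls.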
cell line,measurement,setting,value
184A1,"GR50, 72 h",[1],0.00549 µM
same,"GR50, 72 h",[2],1.72 µM
same,"GR50, 72 h",[3],0.00519 µM
same,"GR50, 72 h",[4],< 0.001 µM
same,"GR50, 72 h",[5],1 µM
same,"GR50, 72 h",[6],4.62 µM
same,increase in dead-cell fraction,[7]; 0.0001 µM,-0.0061
same,increase in dead-cell fraction,[7]; 0.0003162 µM,0.0046
same,increase in dead-cell fraction,[7]; 0.001 µM,-0.0038
same,increase in dead-cell fraction,[7]; 0.003162 µM,-0.0001
same,increase in dead-cell fraction,[7]; 0.01 µM,0.0054
same,increase in dead-cell fraction,[7]; 0.03162 µM,0.0223
same,increase in dead-cell fraction,[7]; 0.1 µM,0.0902
same,increase in dead-cell fraction,[7]; 0.3162 µM,0.231
same,increase in dead-cell fraction,[7]; 1 µM,0.0866
same,increase in dead-cell fraction,[8]; 0.0003162 µM,-0.004
same,increase in dead-cell fraction,[8]; 0.001 µM,-0.0007
same,increase in dead-cell fraction,[8]; 0.003162 µM,-0.0029
same,increase in dead-cell fraction,[8]; 0.01 µM,0.001
same,increase in dead-cell fraction,[8]; 0.03162 µM,0.0214
same,increase in dead-cell fraction,[8]; 0.1 µM,0.0256
same,increase in dead-cell fraction,[8]; 0.3162 µM,0.0311
same,increase in dead-cell fraction,[8]; 1 µM,0.028
same,increase in dead-cell fraction,[8]; 3.162 µM,0.0419
same,increase in dead-cell fraction,[9]; 0.001 µM,0.0016
same,increase in dead-cell fraction,[9]; 0.003162 µM,0.0047
same,increase in dead-cell fraction,[9]; 0.01 µM,0.0067
same,increase in dead-cell fraction,[9]; 0.03162 µM,0.0185
same,increase in dead-cell fraction,[9]; 0.1 µM,0.0336
same,increase in dead-cell fraction,[9]; 0.3162 µM,0.0578
same,increase in dead-cell fraction,[9]; 1 µM,0.056
same,increase in dead-cell fraction,[9]; 3.162 µM,0.0434
same,increase in dead-cell fraction,[9]; 10 µM,0.229
same,increase in dead-cell fraction,[10]; 0.0001 µM,-0.0006
same,increase in dead-cell fraction,[10]; 0.0003162 µM,0.0038
same,increase in dead-cell fraction,[10]; 0.001 µM,0.0021
same,increase in dead-cell fraction,[10]; 0.003162 µM,0.0076
same,increase in dead-cell fraction,[10]; 0.01 µM,0.0448
same,increase in dead-cell fraction,[10]; 0.03162 µM,0.169
same,increase in dead-cell fraction,[10]; 0.1 µM,0.175
same,increase in dead-cell fraction,[10]; 0.3162 µM,0.152
same,increase in dead-cell fraction,[11]; 0.0003162 µM,-0.0004
same,increase in dead-cell fraction,[11]; 0.001 µM,0.0016
same,increase in dead-cell fraction,[11]; 0.003162 µM,-0.0008
same,increase in dead-cell fraction,[11]; 0.01 µM,0.0001
same,increase in dead-cell fraction,[11]; 0.03162 µM,0.0086
same,increase in dead-cell fraction,[11]; 0.1 µM,0.0183
same,increase in dead-cell fraction,[11]; 0.3162 µM,0.0224
same,increase in dead-cell fraction,[11]; 1 µM,0.0414
same,increase in dead-cell fraction,[11]; 3.162 µM,0.0383
same,increase in dead-cell fraction,[12]; 0.0001 µM,0.0016
same,increase in dead-cell fraction,[12]; 0.0003162 µM,0.0042
same,increase in dead-cell fraction,[12]; 0.001 µM,0.0042
same,increase in dead-cell fraction,[12]; 0.003162 µM,0.0053
same,increase in dead-cell fraction,[12]; 0.01 µM,-0.004
same,increase in dead-cell fraction,[12]; 0.03162 µM,0.0024
same,increase in dead-cell fraction,[12]; 0.1 µM,0.0107
same,increase in dead-cell fraction,[12]; 0.3162 µM,0.0204
same,increase in dead-cell fraction,[12]; 1 µM,0.447
same,increase in dead-cell fraction,[13]; 0.001 µM,0.0076
same,increase in dead-cell fraction,[13]; 0.003162 µM,0.0015
same,increase in dead-cell fraction,[13]; 0.01 µM,0.0139
same,increase in dead-cell fraction,[13]; 0.03162 µM,0.0172
same,increase in dead-cell fraction,[13]; 0.1 µM,0.0129
same,increase in dead-cell fraction,[13]; 0.3162 µM,0.0139
same,increase in dead-cell fraction,[13]; 1 µM,0.0153
same,increase in dead-cell fraction,[13]; 3.162 µM,0.015
same,increase in dead-cell fraction,[13]; 10 µM,0.041
same,increase in dead-cell fraction,[14]; 0.001 µM,0.02
same,increase in dead-cell fraction,[14]; 0.003162 µM,0.0379
same,increase in dead-cell fraction,[14]; 0.01 µM,0.119
same,increase in dead-cell fraction,[14]; 0.03162 µM,0.122
same,increase in dead-cell fraction,[14]; 0.1 µM,0.147
same,increase in dead-cell fraction,[14]; 0.3162 µM,0.0805
same,increase in dead-cell fraction,[14]; 1 µM,0.137
same,increase in dead-cell fraction,[14]; 3.162 µM,0.179
same,increase in dead-cell fraction,[14]; 10 µM,0.34
same,increase in dead-cell fraction,[15]; 0.001 µM,0.0061
same,increase in dead-cell fraction,[15]; 0.003162 µM,0.0101
same,increase in dead-cell fraction,[15]; 0.01 µM,0.0181
same,increase in dead-cell fraction,[15]; 0.03162 µM,0.0097
same,increase in dead-cell fraction,[15]; 0.1 µM,0.0423
same,increase in dead-cell fraction,[15]; 0.3162 µM,0.0318
same,increase in dead-cell fraction,[15]; 1 µM,0.0505
same,increase in dead-cell fraction,[15]; 3.162 µM,0.0581
same,increase in dead-cell fraction,[15]; 10 µM,0.179
same,increase in dead-cell fraction,[16]; 0.0001 µM,-0.0039
same,increase in dead-cell fraction,[16]; 0.0003162 µM,-0.0006
same,increase in dead-cell fraction,[16]; 0.001 µM,-0.0027
same,increase in dead-cell fraction,[16]; 0.003162 µM,-0.0019
same,increase in dead-cell fraction,[16]; 0.01 µM,0.0164
same,increase in dead-cell fraction,[16]; 0.03162 µM,0.277
same,increase in dead-cell fraction,[16]; 0.1 µM,0.127
same,increase in dead-cell fraction,[16]; 0.3162 µM,0.363
same,increase in dead-cell fraction,[16]; 1 µM,0.368
MCF10A (GM),"GR50, 72 h",[2],7.51 µM
same,"GR50, 72 h",[3],1.17 µM
same,"GR50, 72 h",[4],0.355 µM
same,increase in dead-cell fraction,[7]; 0.0001 µM,-0.0007
same,increase in dead-cell fraction,[7]; 0.0003162 µM,-0.0019
same,increase in dead-cell fraction,[7]; 0.001 µM,-0.0004
same,increase in dead-cell fraction,[7]; 0.003162 µM,-0.0003
same,increase in dead-cell fraction,[7]; 0.01 µM,0.0027
same,increase in dead-cell fraction,[7]; 0.03162 µM,0.0152
same,increase in dead-cell fraction,[7]; 0.1 µM,0.0701
same,increase in dead-cell fraction,[7]; 0.3162 µM,0.491
same,increase in dead-cell fraction,[7]; 1 µM,0.66
same,increase in dead-cell fraction,[10]; 0.0001 µM,-0.0002
same,increase in dead-cell fraction,[10]; 0.0003162 µM,-0.0005
same,increase in dead-cell fraction,[10]; 0.001 µM,-0.0015
same,increase in dead-cell fraction,[10]; 0.003162 µM,0.0003
same,increase in dead-cell fraction,[10]; 0.01 µM,0.0067
same,increase in dead-cell fraction,[10]; 0.03162 µM,0.127
same,increase in dead-cell fraction,[10]; 0.1 µM,0.225
same,increase in dead-cell fraction,[10]; 0.3162 µM,0.256
same,increase in dead-cell fraction,[10]; 1 µM,0.61
same,increase in dead-cell fraction,[12]; 0.0001 µM,0.0026
same,increase in dead-cell fraction,[12]; 0.0003162 µM,0.0015
same,increase in dead-cell fraction,[12]; 0.001 µM,-0.0008
same,increase in dead-cell fraction,[12]; 0.003162 µM,-0.0019
same,increase in dead-cell fraction,[12]; 0.01 µM,0.0006
same,increase in dead-cell fraction,[12]; 0.03162 µM,0.0017
same,increase in dead-cell fraction,[12]; 0.1 µM,0.0028
same,increase in dead-cell fraction,[12]; 0.3162 µM,0.0137
same,increase in dead-cell fraction,[12]; 1 µM,0.62
same,increase in dead-cell fraction,[13]; 0.001 µM,0.0013
same,increase in dead-cell fraction,[13]; 0.003162 µM,0.0004
same,increase in dead-cell fraction,[13]; 0.01 µM,0.002
same,increase in dead-cell fraction,[13]; 0.03162 µM,0.0019
same,increase in dead-cell fraction,[13]; 0.1 µM,0.0026
same,increase in dead-cell fraction,[13]; 0.3162 µM,0.0035
same,increase in dead-cell fraction,[13]; 1 µM,0.0035
same,increase in dead-cell fraction,[13]; 3.162 µM,0.0073
same,increase in dead-cell fraction,[13]; 10 µM,0.0229
same,increase in dead-cell fraction,[14]; 0.001 µM,0.22
same,increase in dead-cell fraction,[14]; 0.003162 µM,0.329
same,increase in dead-cell fraction,[14]; 0.01 µM,0.363
same,increase in dead-cell fraction,[14]; 0.03162 µM,0.249
same,increase in dead-cell fraction,[14]; 0.1 µM,0.226
same,increase in dead-cell fraction,[14]; 0.3162 µM,0.293
same,increase in dead-cell fraction,[14]; 1 µM,0.263
same,increase in dead-cell fraction,[14]; 3.162 µM,0.218
same,increase in dead-cell fraction,[14]; 10 µM,0.391
same,increase in dead-cell fraction,[15]; 0.001 µM,0.0019
same,increase in dead-cell fraction,[15]; 0.003162 µM,-0.0004
same,increase in dead-cell fraction,[15]; 0.01 µM,0.0026
same,increase in dead-cell fraction,[15]; 0.03162 µM,0.0037
same,increase in dead-cell fraction,[15]; 0.1 µM,0.0042
same,increase in dead-cell fraction,[15]; 0.3162 µM,0.0033
same,increase in dead-cell fraction,[15]; 1 µM,0.0209
same,increase in dead-cell fraction,[15]; 3.162 µM,0.0255
same,increase in dead-cell fraction,[15]; 10 µM,0.455
